Data taken from patent publication US20060241067A1, “Methods For inhibiting angiogenesis, cell migration, cell adhesion, and cell survival” (priority 2002, published 2006).
“Also recorded” adds a separate entry of the source.

How the values were obtained:
[1] = test system: chick chorioallantoic membrane (CAM); assay: Chick chorioallantoic membrane (CAM) angiogenesis assay; assay type: in vivo, chicken; settings: bFGF stimulated CAMs; 250 μM cAMP or 4 μg plasmid
[2] = test system: Human umbilical vein endothelial cells (HUVEC); assay: Cell adhesion (attachment) assay on ECM substrates; assay type: cell-based; settings: cAMP treatment or PKA catalytic subunit transfection
Experimental: (§1) Human umbilical vein endothelial cells (HUVEC) were grown in Endothelial Growth Medium (containing 2% fetal bovine serum, bFGF and VEGF) (Clonetics, San Diego, Calif.). To render HUVECs quiescent for Rac and/or Rho assays, monolayers of endothelial cells were incubated for 18 hrs in Endothelial Basal Medium supplemented with 0.1% serum (Clonetics). Cell migration and adhesion assays on ECM substrates were performed as previously described in Kim et al. (S. Kim et al., Amer. J. Biol. Chem., 275:33920-33928 (2000); and S. Kim et al., Amer. J. Path., 156:1345-1362 (2000)).

[3] = test system: Human umbilical vein endothelial cells (HUVEC); assay: Endothelial cell migration assay (transwell) on ECM substrates; assay type: cell-based; settings: 250 μM dibutyryl cAMP or transient transfection with expression constructs
Experimental: as §1
Migration assays were performed essentially as described (Kim, et. al., 2000). […] HUVECS (25,000) were added to the upper chamber of inserts in migration buffer (Hepes buffered M199 medium containing 1% BSA, 2 mM MgCl2, 2 mM CaCl2 and 0.2 mM MnCl2) containing 25 μg/ml of various antibodies. In some experiments, 250 μM dibutyryl cAMP was placed in the upper and lower chambers of the transwell. Cells were allowed to migrate from the upper to the lower chamber for four hours at 37° C. The number of cells which had migrated were counted in three representative high power (200×) fields per insert. The data are presented as number of cells migrating+/−standard error of the mean. Migration assays were similarly performed on transfected cells. In this case, migrated transfected cells were identified by fluorescent microscopy and counted.

[4] = test system: HUVECS; assay: Staining of actin filaments and focal contacts (rhodamine phalloidin, anti-vinculin); assay type: cell-based, human
Experimental: Round […] glass coverslips were coated with 5 μg/ml vitronectin for 1 hour at 37° C., then blocked with 3% bovine serum albumin for 2 hours at 37° C. HUVECS were removed from culture dishes by trypsizination, washed in serum-free culture medium, and resuspended in endothelial basal culture medium. Cells were then incubated for one hour at 37° C. on coated coverslips. Cells were incubated in the presence of 25 μg/ml anti-α5β1, anti-α2β1 or no antibodies for 60 minutes. Alternatively, cells in endothelial growth medium containing VEGF and bFGF but no serum were plated on coverslips for 48 hours and then treated with cAMP or medium. Coverslips were then washed to remove unbound cells, fixed for 5 minutes in 3.7% paraformaldehyde and permeabilized in 0.3% TX-100 for 3 minutes. Coverslips were incubated with 0.2 μg/ml anti-vinculin antibodies or rhodamine phalloidin (20 ng/ml) in 20 mg/ml bovine serum albumin in phosphate buffered saline for one hour at room temperature. Coverslips were well washed in PBS and incubated in 10 μg/ml goat anti-mouse-Alexa 568 (for anti-vinculin) for 1 hour at room temperature. Coverslips were mounted using mounting medium prior to fluorescent microsopy.

[5] = test system: Rac; assay: Rac activity assay (GST-PBD affinity precipitation); assay type: cell-based, human; settings: vitronectin 30 minutes, cAMP, PTHrP or transfection
Experimental: as §1
Rho activity was determined by measuring the amount of Rho affinity bound to GST-Rhotekin binding domain (RBD). Levels of active Rho were determined by Western blotting affinity precipitated protein with anti-Rho antibodies while total Rho levels were measured by immunoblotting total cell lysates with anti-Rho. Rac activity was determined by measuring the amount of Rac affinity precipitated by the GST-p21-activated protein binding domain, PBD (Upstate Biotechnology, Syracuse, N.Y.). Levels of active Rac were determined by immunoblotting affinity precipitated protein with anti-Rac antibodies. […] Total Rac levels were measured by immunoblotting total cell lysates with anti-Rac.

[6] = test system: HUVECS; assay: Time lapse videomicroscopy of migrating endothelial cells; assay type: cell-based, human; settings: 500 μM dibutyryl-cAMP, vitronectin
Experimental: 2.5-cm-diameter glass coverslips were coated with 5 μg/ml vitronectin for 1 hour at 37° C., then blocked with 3% bovine serum albumin for 2 hours. HUVECs were removed from culture dishes by trypsizination, and plated on coverslips for 48 hours. Coverslips were then placed on the microscope stage (Zeiss, Oberkochen, Germany) connected to a Charged Coupled Device (CCD) camera and viewed at a 200× magnification in bright field. Cells on the coverslips were kept at 37° C. with 5% CO2, bathed in culture media with 20 mM HEPES (pH7.4). Images were recorded using IP Lab software (Webster, N.Y.) at 1-minute intervals for 60 minutes. Dibutyryl-cAMP was then directly added into the culture medium at concentration of 500 μM. Images of cells were then recorded for an additional 60 minutes at 1-minute intervals. Cell shape and migration distance changes were quantified using IMAQ Vision Builder software (National Instruments Corporation, Austin, Tex.). Cell shape and nuclear positions were measured at 10-minute time points. Ellipse Ratio was used as a parameter for polarity. As cell shape approaches a circle, the Ellipse Ratio approaches the number one. Distance migrated was determined by measuring the distance nuclei moved in ten minute intervals. […] Images were recorded using IP Lab Spectrum software (Webster, N.Y.) at 1-minute intervals for 60 minutes. […]

CCCC(=O)Nc1ncnc2c1ncn2[C@@H]1O[C@@H]2COP(=O)(O)O[C@H]2[C@H]1OC(=O)CCC [dibutyryl cAMP]
angiogenesis (blood vessel branch points) [1]: completely suppresses angiogenesis; also recorded: potently inhibits angiogenesis
cell attachment to vitronectin [2]: enhanced cell attachment to vitronectin
endothelial cell migration on vitronectin [3]: quantitatively inhibits endothelial cell migration
increase in the number of focal adhesions ([4]; cAMP treated versus untreated cells): 3 fold
cell shape, stress fibers and actin remodeling ([4]; cAMP treatment or transfection, vitronectin): remain round and flat and exhibit neither stress fibers nor cortical actin; also recorded: inhibited actin remodeling and induced a flattened morphology
localization of Rho A ([4]; immunolocalization, cAMP treated cells): stimulates the translocation of Rho A to the plasma membrane
Rac activation (RacGTP to total Rac) [5]: blocked
Rac activation (RacGTP to total Rac) ([5]; listed as cell permeable cAMP): inhibits Rac activation
cell shape (polarity) [6]: rapidly induces a flattening of the cell shape
endothelial cell migration (distance moved by nuclei) [6]: rapidly inhibits endothelial cell migration
